This passage reports Ki and IC50 results from US10829481B2, “Benzimidazole derivatives as modulators of ROR-gamma” (Vitae Pharmaceuticals, LLC, priority 2016, dated 2020).

Assay [1] addresses recombinant RORγ Ligand Binding Domain (LBD) protein (Homo sapiens (Human), UniProt P51449). Put plainly: Radio-Ligand RORγ Binding Assay (Assay 1). The settings on record: competition with 25-hydroxy [26,27-3H]-cholesterol, SPA. An outline of the steps: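 Scintillation proximity competition against 25-hydroxy [26,27-^3H]-cholesterol (8.6 nM solution) for 6×His-GST-tagged RORγ LBD (24 nM solution) in HEPES pH 7.4 with CHAPS, β-octylglucopyranoside and DTT; semi-log compound dilutions, ~1 h total at rt with poly-Lys YSi beads. IC50 from four-parameter fit; Ki derived from [RL] and radioligand KD.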

In assay [2] the target is full-length RORγt in Jurkat cells (Homo sapiens (Human), UniProt P51449). Put plainly: RORγt 5×RORE Assay in Jurkat Cells (Assay 2). It counts as cell-based. The settings on record: 5×RORE Nanoluc luciferase reporter. A general note: Reporter assays use an easily measured gene product as a stand-in for the process of interest.
Sequence of full-length RORγt in Jurkat cells (P51449 other isoform, or with tags, fused parts or gaps): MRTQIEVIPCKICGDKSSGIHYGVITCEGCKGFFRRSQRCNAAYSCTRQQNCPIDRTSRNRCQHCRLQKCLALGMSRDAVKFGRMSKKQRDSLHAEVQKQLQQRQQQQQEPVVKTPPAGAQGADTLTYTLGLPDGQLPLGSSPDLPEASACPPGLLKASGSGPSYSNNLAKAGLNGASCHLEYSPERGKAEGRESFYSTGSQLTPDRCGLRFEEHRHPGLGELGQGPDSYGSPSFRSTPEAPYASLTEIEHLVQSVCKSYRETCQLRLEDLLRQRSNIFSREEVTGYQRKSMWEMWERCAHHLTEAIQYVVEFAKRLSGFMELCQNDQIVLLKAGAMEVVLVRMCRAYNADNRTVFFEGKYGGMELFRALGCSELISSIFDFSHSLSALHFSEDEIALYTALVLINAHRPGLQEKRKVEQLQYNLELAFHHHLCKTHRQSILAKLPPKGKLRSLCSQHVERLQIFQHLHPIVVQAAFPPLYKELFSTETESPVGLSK

Sequence of recombinant RORγ Ligand Binding Domain (LBD) protein (P51449 269-508): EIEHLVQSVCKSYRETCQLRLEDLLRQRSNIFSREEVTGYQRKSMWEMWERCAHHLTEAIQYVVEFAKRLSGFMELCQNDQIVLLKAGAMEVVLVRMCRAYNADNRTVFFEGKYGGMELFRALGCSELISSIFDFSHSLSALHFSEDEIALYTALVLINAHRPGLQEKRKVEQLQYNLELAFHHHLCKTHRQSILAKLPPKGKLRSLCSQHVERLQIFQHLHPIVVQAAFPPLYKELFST

As usually defined, the Ki is a dissociation constant, usually derived from enzyme kinetics or from competition with a known ligand. In general, IC50 refers to the concentration that inhibits the measured activity by half. Read a high IC50 as a need for much substance. In the case of `CS(=O)(=O)c1ccc([C@H](CO)NC(=O)c2ccc3c(c2)nc(C2CCC2)n3Cc2cccc3c2OC(F)(F)O3)cc1` [I-22, (R)-2-cyclobutyl-1-((2,2-difluorobenzo[d][1,3]dioxol-4-yl)methyl)-N-(2-hydroxy-1-(4-(methylsulfonyl)phenyl)ethyl)-1H-benzo[d]imidazole-5-carboxamide], the Ki in assay [1] is < 100 nM. Besides, the IC50 in assay [2] is < 100 nM.
With `CCS(=O)(=O)c1ccc(CNC(=O)c2ccc3c(c2)nc(C2(F)CC2)n3Cc2cccc3c2OC(F)(F)O3)nc1` [I-67, 1-((2,2-difluorobenzo[d][1,3]dioxol-4-yl)methyl)-N-((5-(ethylsulfonyl)pyridin-2-yl)methyl)-2-(1-fluorocyclopropyl)-1H-benzo[d]imidazole-5-carboxamide], the Ki in assay [1] was < 100 nM. The IC50 in assay [2] was < 100 nM.
As for `CCS(=O)(=O)c1ccc(CNC(=O)c2ccc3c(c2)nc(C2CC2)n3Cc2cc(OC)cc(OC)c2)cc1` [I-103, 2-cyclopropyl-1-(3,5-dimethoxybenzyl)-N-(4-(ethylsulfonyl)benzyl)-1H-benzo[d]imidazole-5-carboxamide], the Ki in assay [1] was < 100 nM. In assay [2], this molecule registered an IC50 of 100 to 1000 nM.
For `CCS(=O)(=O)c1ccc(CNC(=O)c2ccc3c(c2)nc(C(F)(F)F)n3Cc2cccc3ncoc23)cc1` [I-152, 1-(benzo[d]oxazol-7-ylmethyl)-N-(4-(ethylsulfonyl)benzyl)-2-(trifluoromethyl)-1H-benzo[d]imidazole-5-carboxamide], in that order: < 100 nM and < 100 nM.
In the case of `CNC(=O)CS(=O)(=O)N1CCC(CNC(=O)c2ccc3c(c2)nc(C2CC2)n3Cc2cccc3c2OC(F)(F)O3)CC1` [I-79, 2-cyclopropyl-1-((2,2-difluorobenzo[d][1,3]dioxol-4-yl)methyl)-N-((1-((2-(methylamino)-2-oxoethyl)sulfonyl)piperidin-4-yl)methyl)-1H-benzo[d]imidazole-5-carboxamide], the Ki in assay [1] is < 100 nM. The same molecule yielded an IC50 in assay [2] of 100 to 1000 nM.
For `CCS(=O)(=O)c1ccc(CNC(=O)c2ccc3c(c2)nc(C(F)(F)F)n3Cc2cc(OC)cc(OC)c2)cc1` [I-82, 1-(3,5-dimethoxybenzyl)-N-(4-(ethylsulfonyl)benzyl)-2-(trifluoromethyl)-1H-benzo[d]imidazole-5-carboxamide], in that order: < 100 nM and > 1000 nM.
For `CCS(=O)(=O)c1ccc(CNC(=O)c2ccc3c(c2)nc(C(F)(F)F)n3Cc2cccc3c2OCO3)cc1` [I-98, 1-(benzo[d][1,3]dioxol-4-ylmethyl)-N-(4-(ethylsulfonyl)benzyl)-2-(trifluoromethyl)-1H-benzo[d]imidazole-5-carboxamide], the Ki in assay [1] is < 100 nM. In assay [2], the IC50 was < 100 nM.
As for `CCS(=O)(=O)c1ccc(CNC(=O)c2ccc3c(c2)nc(C(F)(F)F)n3Cc2cc(OC)cc(OC)c2)nc1` [I-128, 1-(3,5-dimethoxybenzyl)-N-((5-(ethylsulfonyl)pyridin-2-yl)methyl)-2-(trifluoromethyl)-1H-benzo[d]imidazole-5-carboxamide], the Ki in assay [1] is < 100 nM. Besides, the IC50 in assay [2] was > 1000 nM.
For `CCS(=O)(=O)c1ccc([C@H](CO)NC(=O)c2ccc3c(c2)nc(C2CC2)n3Cc2cccc3c2OCC3)cc1` [I-102, (R)-2-cyclopropyl-1-((2,3-dihydrobenzofuran-7-yl)methyl)-N-(1-(4-(ethylsulfonyl)phenyl)-2-hydroxyethyl)-1H-benzo[d]imidazole-5-carboxamide], the Ki in assay [1] was < 100 nM. The IC50 in assay [2] was < 100 nM.
Consider `CCS(=O)(=O)c1ccc(CNC(=O)c2ccc3c(c2)nc(C(F)(F)F)n3Cc2cccc3c2CCO3)cc1` [I-172, 1-((2,3-dihydrobenzofuran-4-yl)methyl)-N-(4-(ethylsulfonyl)benzyl)-2-(trifluoromethyl)-1H-benzo[d]imidazole-5-carboxamide], for which, in assay [1], the Ki was < 100 nM. Further, in assay [2], the IC50 was < 100 nM.
As to `CCS(=O)(=O)c1ccc(CNC(=O)c2ccc3c(c2)nc(C(C)(C)C)n3Cc2cccc3c2OC(F)(F)O3)cc1` [I-30, 2-(tert-butyl)-1-((2,2-difluorobenzo[d][1,3]dioxol-4-yl)methyl)-N-(4-(ethylsulfonyl)benzyl)-1H-benzo[d]imidazole-5-carboxamide], the Ki in assay [1] is < 100 nM. In addition, the IC50 in assay [2] was < 100 nM.
`CCS(=O)(=O)c1ccc(CNC(=O)c2ccc3c(c2)nc(C(F)(F)F)n3Cc2ccnc(OC)c2)cc1` [I-89, N-(4-(ethylsulfonyl)benzyl)-1-((2-methoxypyridin-4-yl)methyl)-2-(trifluoromethyl)-1H-benzo[d]imidazole-5-carboxamide]: in assay [1], the Ki was < 100 nM. The IC50 in assay [2] lay within 100 to 1000 nM.
For `CS(=O)(=O)c1ccc([C@H](CO)NC(=O)c2ccc3c(c2)nc(C2CC2)n3Cc2cccc3c2OC(F)(F)O3)cc1` [I-21, (R)-2-cyclopropyl-1-((2,2-difluorobenzo[d][1,3]dioxol-4-yl)methyl)-N-(2-hydroxy-1-(4-(methylsulfonyl)phenyl)ethyl)-1H-benzo[d]imidazole-5-carboxamide], in that order: < 100 nM and < 100 nM.
Consider `CCS(=O)(=O)c1ccc(CNC(=O)c2ccc3c(c2)nc(C(F)(F)F)n3Cc2cccc3c2cnn3C)cc1` [I-141, N-(4-(ethylsulfonyl)benzyl)-1-((1-methyl-1H-indazol-4-yl)methyl)-2-(trifluoromethyl)-1H-benzo[d]imidazole-5-carboxamide], for which the Ki in assay [1] was > 1000 nM. This molecule gave an IC50 in assay [2] of 100 to 1000 nM.
For `CNS(=O)(=O)c1ccc(CNC(=O)c2ccc3c(c2)nc(C2CC2)n3Cc2cccc3c2OC(F)(F)O3)cc1` [I-35, 2-cyclopropyl-1-((2,2-difluorobenzo[d][1,3]dioxol-4-yl)methyl)-N-(4-(N-methylsulfamoyl)benzyl)-1H-benzo[d]imidazole-5-carboxamide], in that order: < 100 nM and < 100 nM.
For `CCS(=O)(=O)c1ccc(CC(=O)Nc2ccc3c(c2)nc(C(F)(F)F)n3Cc2cccc3c2OC(F)(F)O3)cc1` [I-1, N-(1-((2,2-difluorobenzo[d][1,3]dioxol-4-yl)methyl)-2-(trifluoromethyl)-1H-benzo[d]imidazol-5-yl)-2-(4-(ethylsulfonyl)phenyl)acetamide], in that order: < 100 nM and < 100 nM.
For `CCS(=O)(=O)c1ccc(CNC(=O)c2ccc3c(c2)nc(C(F)(F)F)n3Cc2cccc3c2OC(F)(F)O3)nc1` [I-63, 1-((2,2-difluorobenzo[d][1,3]dioxol-4-yl)methyl)-N-((5-(ethylsulfonyl)pyridin-2-yl)methyl)-2-(trifluoromethyl)-1H-benzo[d]imidazole-5-carboxamide], in that order: < 100 nM and < 100 nM.
On to `CS(=O)(=O)N1CCC([C@@H](CO)NC(=O)c2ccc3c(c2)nc(C(F)(F)F)n3Cc2cccc3c2OC(F)(F)O3)CC1` (mixture of isomers) [I-164.1, (R)-1-((2,2-difluorobenzo[d][1,3]dioxol-4-yl)methyl)-N-(2-hydroxy-1-(1-(methylsulfonyl)piperidin-4-yl)ethyl)-2-(trifluoromethyl)-1H-benzo[d]imidazole-5-carboxamide and (S)-1-((2,2-difluorobenzo[d][1,3]dioxol-4-yl)methyl)-N-(2-hydroxy-1-(1-(methylsulfonyl)piperidin-4-yl)ethyl)-2-(trifluoromethyl)-1H-benzo[d]imidazole-5-carboxamide], for which, in assay [1], the Ki is < 100 nM. The IC50 in assay [2] is < 100 nM.
